What was measured:
recombinant PI3 kinase δ = recombinant PI3 kinase δ (Homo sapiens (Human), UniProt O00329); experiment: Enzyme Inhibition Assay (HTRF PI3K enzyme assay, TR-FRET); assay type: biochemical; settings: activity range; read-out: PI3 Kinase Inhibition IC50 values at stated Isozyme δ
Description: (§1) PI3 kinases catalyse the phosphorylation of phosphatidylinositol 4,5-biphosphate (PIP2) to phosphatidylinositol 3,4,5-triphosphate (PIP3) in the presence of ATP and Mg^2+ ions. The PIP3 product can be detected by displacement of biotin-PIP3 from energy transfer complexes consisting of europium labelled anti-GST monoclonal antibody, a GST-tagged Pleckstrin homology (PH) domain, biotinylated PIP3 and streptavidin-allophycocyanin (APC) by the time-resolved fluorescence resonance energy transfer (TR-FRET) (HTRF® PI3K enzyme assay, Millipore). […] The PIP3 product formed by PI3K activity displaces biotin-PIP3 from the complex and results in a loss of energy transfer (decreasing signal).
(§2) The compound to be tested was added, at the desired final concentrations, to a mixture of PIP2 substrate and recombinant PI3 kinase α, δ or γ enzymes (Millipore), and the mixture incubated for 2 hr at RT. […] A stopping solution containing biotinylated PIP3 and the detection mix containing the GST tagged GRP1 pleckstrin homology (PH) domain and fluorophores were then added and the mixture was incubated at RT for 15-18 hr, prior to detection in a fluorescence microplate reader (Varioskan® Flash, ThermoFisher Scientific).

recombinant PI3 kinase α = recombinant PI3 kinase α (Homo sapiens (Human), UniProt P42336); experiment: as above; assay type: biochemical; settings: activity range; read-out: PI3 Kinase Inhibition IC50 values at stated Isozyme α
Sequence of recombinant PI3 kinase α (P42336 whole entry): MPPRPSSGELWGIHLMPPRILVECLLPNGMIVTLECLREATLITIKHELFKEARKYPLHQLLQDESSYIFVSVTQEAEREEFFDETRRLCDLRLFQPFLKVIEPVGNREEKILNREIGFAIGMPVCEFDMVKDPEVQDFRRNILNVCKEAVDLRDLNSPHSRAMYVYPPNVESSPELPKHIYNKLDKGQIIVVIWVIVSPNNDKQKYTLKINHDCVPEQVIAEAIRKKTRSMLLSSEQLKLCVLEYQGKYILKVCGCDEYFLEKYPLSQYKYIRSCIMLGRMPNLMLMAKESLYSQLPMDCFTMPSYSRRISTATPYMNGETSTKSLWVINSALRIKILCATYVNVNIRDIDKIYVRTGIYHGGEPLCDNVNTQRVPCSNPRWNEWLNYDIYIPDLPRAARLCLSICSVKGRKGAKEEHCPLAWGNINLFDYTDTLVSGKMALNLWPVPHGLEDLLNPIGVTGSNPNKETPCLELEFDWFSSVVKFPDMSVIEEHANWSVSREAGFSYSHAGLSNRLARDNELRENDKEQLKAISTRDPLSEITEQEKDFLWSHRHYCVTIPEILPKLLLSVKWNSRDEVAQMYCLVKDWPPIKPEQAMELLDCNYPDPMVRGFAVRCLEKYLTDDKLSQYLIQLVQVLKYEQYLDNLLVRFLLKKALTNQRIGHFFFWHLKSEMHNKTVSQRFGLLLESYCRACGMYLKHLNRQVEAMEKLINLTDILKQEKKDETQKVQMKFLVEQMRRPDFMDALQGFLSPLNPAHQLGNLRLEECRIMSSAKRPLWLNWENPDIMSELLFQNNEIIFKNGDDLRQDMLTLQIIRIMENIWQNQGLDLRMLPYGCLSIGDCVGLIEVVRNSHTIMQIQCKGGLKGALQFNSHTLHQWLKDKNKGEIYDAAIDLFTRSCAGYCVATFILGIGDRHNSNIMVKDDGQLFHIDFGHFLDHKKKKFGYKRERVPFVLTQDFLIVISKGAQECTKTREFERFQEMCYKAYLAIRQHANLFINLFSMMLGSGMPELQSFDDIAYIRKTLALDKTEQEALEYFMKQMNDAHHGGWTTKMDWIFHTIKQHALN
Sequence of recombinant PI3 kinase α (P27986 whole entry partner): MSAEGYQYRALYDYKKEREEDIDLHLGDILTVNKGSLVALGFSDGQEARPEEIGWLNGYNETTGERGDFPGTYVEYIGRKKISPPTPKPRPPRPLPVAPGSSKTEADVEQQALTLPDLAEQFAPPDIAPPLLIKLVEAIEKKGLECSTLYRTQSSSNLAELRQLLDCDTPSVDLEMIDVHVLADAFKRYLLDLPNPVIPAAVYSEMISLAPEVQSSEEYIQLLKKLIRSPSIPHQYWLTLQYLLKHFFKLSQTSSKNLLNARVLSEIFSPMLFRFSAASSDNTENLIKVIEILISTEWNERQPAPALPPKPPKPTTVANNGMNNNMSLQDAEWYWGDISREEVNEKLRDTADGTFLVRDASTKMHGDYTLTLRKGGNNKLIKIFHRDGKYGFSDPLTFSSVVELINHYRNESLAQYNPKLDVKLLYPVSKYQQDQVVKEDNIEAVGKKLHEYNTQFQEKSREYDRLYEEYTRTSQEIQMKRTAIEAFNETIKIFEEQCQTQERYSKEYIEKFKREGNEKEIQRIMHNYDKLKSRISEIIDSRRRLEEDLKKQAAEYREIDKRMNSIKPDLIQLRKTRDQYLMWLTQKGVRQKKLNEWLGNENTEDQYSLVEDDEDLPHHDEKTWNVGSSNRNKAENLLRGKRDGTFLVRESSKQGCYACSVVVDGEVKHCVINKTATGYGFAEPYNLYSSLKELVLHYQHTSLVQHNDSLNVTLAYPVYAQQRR
Description: as §1, §2

recombinant PI3 kinase γ = recombinant PI3 kinase γ (Homo sapiens (Human), UniProt P48736); experiment: as above; assay type: biochemical; settings: activity range; read-out: PI3 Kinase Inhibition IC50 values at stated Isozyme γ
Sequence of recombinant PI3 kinase γ (P48736 whole entry): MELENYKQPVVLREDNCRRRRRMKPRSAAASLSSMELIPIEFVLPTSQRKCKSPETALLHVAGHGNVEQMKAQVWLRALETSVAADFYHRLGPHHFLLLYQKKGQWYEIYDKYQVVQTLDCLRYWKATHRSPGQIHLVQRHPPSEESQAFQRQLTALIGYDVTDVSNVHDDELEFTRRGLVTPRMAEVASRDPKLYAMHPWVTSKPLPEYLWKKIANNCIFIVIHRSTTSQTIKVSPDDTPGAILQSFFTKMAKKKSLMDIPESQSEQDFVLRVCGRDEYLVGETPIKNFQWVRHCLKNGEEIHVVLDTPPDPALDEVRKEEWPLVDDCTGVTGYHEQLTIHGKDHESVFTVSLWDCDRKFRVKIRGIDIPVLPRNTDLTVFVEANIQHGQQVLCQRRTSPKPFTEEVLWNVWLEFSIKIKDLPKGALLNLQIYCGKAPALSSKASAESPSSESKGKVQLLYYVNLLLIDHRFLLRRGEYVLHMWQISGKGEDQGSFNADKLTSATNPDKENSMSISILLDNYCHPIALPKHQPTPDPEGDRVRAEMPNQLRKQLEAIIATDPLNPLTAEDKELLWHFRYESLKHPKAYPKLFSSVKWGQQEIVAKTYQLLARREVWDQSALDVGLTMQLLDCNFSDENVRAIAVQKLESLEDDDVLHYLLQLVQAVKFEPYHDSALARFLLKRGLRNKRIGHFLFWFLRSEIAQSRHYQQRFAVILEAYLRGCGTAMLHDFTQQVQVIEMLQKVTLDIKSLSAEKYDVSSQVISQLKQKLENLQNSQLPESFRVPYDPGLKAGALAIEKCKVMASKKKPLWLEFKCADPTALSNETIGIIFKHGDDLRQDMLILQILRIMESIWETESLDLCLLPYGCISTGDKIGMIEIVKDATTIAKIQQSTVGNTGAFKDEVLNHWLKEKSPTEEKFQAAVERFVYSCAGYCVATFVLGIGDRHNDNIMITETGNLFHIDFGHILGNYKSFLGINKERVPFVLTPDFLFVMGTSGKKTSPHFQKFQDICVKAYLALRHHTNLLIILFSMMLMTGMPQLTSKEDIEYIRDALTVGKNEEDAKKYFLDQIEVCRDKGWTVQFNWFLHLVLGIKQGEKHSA
Description: as §1, §2

[1] = test system: PMA-differentiated U937 cells; experiment: MTT Assay (cell viability); assay type: cell-based, Human; settings: percentage loss of cell viability; for Cell Viability MTT Assay in D-U937 cells at 4 hr: 4 hr in 5% FCS; for Cell Viability MTT Assay in D-U937 cells at 24 hr: 24 hr in 10% FCS
Method: PMA-differentiated U937 cells were pre-incubated with compound for 4 hr in 5% FCS or 10% FCS for 24 hr. The supernatant was replaced with 200 μL of new media and 10 μL of MTT stock solution (5 mg/ml) added to each well. After 1 hr incubation, the media were removed, 200 μL of DMSO added to each well and the plates were shaken lightly for 1 hr prior to reading the absorbance at 550 nm. The percentage loss of cell viability was calculated for each well relative to vehicle (0.5% DMSO)-treatment (Table 3).

[2] = test system: H2O2 induced pAkt in D-U937 cells; experiment: PI3Kδ Cell Based Assay (H2O2 induced pAkt); settings: Homo sapiens, dU937; activity range; D-U937 cells; read-out: Cellular Activity IC50 values (H2O2 induced pAkt D-U937 Cells)
Method: As a means of assessing PI3K 6 activation in response to stimuli, the phosphorylation status of the protein, Akt, a downstream product of PI3K6, signaling was determined. Human monocytic cells (U937 cells), were differentiated to macrophage-type cells by incubation with phorbol myristate acetate (PMA; 100 ng/mL) for 48 to 72 hr. […] The cells were washed with buffer (PBS containing 0.1% Triton X-100) and were incubated with blocking solution (1% BSA in PBS) for 1 hr and were then re-washed with buffer and incubated overnight with either anti-pAkt antibody or anti-pan-Akt antibody (both from Cell Signaling Technology). […] This reaction was stopped by addition of 100 μL of 1N H2SO4 solution. […] The ratio of pAkt signal to total Akt signal was used to quantitate the extent of PI3K δ activation. […] The IC50 values were calculated from the concentration-response curves generated by the serial dilutions of the test compounds (Table 3 and Table 4).

Sequence of recombinant PI3 kinase δ (O00329 whole entry): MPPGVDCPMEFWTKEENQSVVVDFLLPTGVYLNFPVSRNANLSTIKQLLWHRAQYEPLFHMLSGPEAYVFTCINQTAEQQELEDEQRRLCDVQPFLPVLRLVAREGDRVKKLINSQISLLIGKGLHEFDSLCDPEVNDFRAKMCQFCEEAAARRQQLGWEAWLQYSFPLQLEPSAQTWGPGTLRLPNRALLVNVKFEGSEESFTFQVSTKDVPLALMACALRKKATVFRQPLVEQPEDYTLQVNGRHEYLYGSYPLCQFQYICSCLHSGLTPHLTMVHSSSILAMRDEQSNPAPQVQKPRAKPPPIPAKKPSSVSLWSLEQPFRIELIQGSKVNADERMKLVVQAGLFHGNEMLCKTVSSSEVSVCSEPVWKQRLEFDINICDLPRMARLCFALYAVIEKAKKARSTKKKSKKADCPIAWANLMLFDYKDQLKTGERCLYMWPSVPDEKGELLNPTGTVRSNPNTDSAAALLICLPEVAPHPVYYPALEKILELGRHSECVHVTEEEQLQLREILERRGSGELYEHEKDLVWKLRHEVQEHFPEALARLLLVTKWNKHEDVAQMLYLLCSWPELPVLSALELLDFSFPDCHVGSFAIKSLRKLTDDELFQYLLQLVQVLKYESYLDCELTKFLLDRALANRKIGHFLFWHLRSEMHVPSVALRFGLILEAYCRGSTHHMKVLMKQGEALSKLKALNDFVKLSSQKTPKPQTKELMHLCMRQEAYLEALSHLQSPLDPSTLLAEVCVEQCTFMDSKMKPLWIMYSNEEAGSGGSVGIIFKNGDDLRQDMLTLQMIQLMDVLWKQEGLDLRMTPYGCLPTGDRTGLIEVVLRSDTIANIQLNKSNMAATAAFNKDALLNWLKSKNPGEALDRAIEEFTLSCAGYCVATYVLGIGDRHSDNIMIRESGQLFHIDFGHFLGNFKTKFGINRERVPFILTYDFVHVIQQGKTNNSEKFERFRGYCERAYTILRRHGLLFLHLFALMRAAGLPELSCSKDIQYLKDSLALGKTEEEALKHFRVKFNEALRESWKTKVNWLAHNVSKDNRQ
Sequence of recombinant PI3 kinase δ (P27986 whole entry partner): as the sequence (P27986 whole entry partner) above

Row | SMILES | IC50 (recombinant PI3 kinase δ) [nM] | IC50 (recombinant PI3 kinase α) [nM] | IC50 (recombinant PI3 kinase γ) [nM] | Cell Viability MTT Assay in D-U937 cells at 4 hr [1] | Cell Viability MTT Assay in D-U937 cells at 24 hr [1] | IC50 [2] [nM]
1 | C#Cc1cccc2nc(Cn3nc(-c4ccc(O)cc4)c4c(N)ncnc43)n(Cc3ccc(OC)cc3)c(=O)c12 [Example 46, 2-((4-Amino-3-(4-hydroxyphenyl)-1H-pyrazolo[3,4-d]pyrimidin-1-yl)methyl)-5-ethynyl-3-(4-methoxybenzyl)quinazolin-4(3H)-one] | < 50 | 50 to 1000 | 50 to 1000 | − (− <30%) | − (− <30%) | < 10
2 | C#Cc1cccc2nc(Cn3nc(-c4ccc(O)cc4)c4c(N)ncnc43)n(Cc3ccc(C#N)cc3)c(=O)c12 [Example 47, 4-((2-((4-Amino-3-(4-hydroxyphenyl)-1H-pyrazolo[3,4-d]pyrimidin-1-yl)methyl)-5-ethynyl-4-oxoquinazolin-3(4H)-yl)methyl)benzonitrile] | < 50 | 50 to 1000 | 50 to 1000 | − (− <30%) | − (− <30%) | < 10
3 | C#Cc1cccc2nc(Cn3nc(-c4ccc(O)cc4)c4c(N)ncnc43)n(Cc3ccc(OC)cc3F)c(=O)c12 [Example 48, 2-((4-Amino-3-(4-hydroxyphenyl)-1H-pyrazolo[3,4-d]pyrimidin-1-yl)methyl)-5-ethynyl-3-(2-fluoro-4-methoxybenzyl)quinazolin-4(3H)-one] | < 50 | 50 to 1000 | 50 to 1000 | − (− <30%) | − (− <30%) | < 10
4 | NC(=O)NCC#Cc1cccc2nc(Cn3nc(-c4ccc(O)cc4)c4c(N)ncnc43)n(Cc3ccccc3Cl)c(=O)c12 [Example 49, 1-(3-(2-((4-Amino-3-(4-hydroxyphenyl)-1H-pyrazolo[3,4-d]pyrimidin-1-yl)methyl)-3-(2-chlorobenzyl)-4-oxo-3,4-dihydroquinazolin-5-yl)prop-2-ynyl)urea] | < 50 | 50 to 1000 | 50 to 1000 | − (− <30%) | − (− <30%) | < 10
5 | COCCOCCOCC#Cc1cccc2nc(Cn3nc(-c4cccc(O)c4)c4c(N)ncnc43)n(Cc3ccccc3F)c(=O)c12 [Example 50, 2-((4-Amino-3-(3-hydroxyphenyl)-1H-pyrazolo[3,4-d]pyrimidin-1-yl)methyl)-3-(2-fluorobenzyl)-5-(3-(2-(2-methoxyethoxy)ethoxy)prop-1-ynyl)quinazolin-4(3H)-one] | < 50 | 50 to 1000 | 50 to 1000 | − (− <30%) | − (− <30%) | < 10
6 | C#Cc1cccc2nc(Cn3nc(-c4ccc(F)c(O)c4)c4c(N)ncnc43)n(Cc3ccccc3Cl)c(=O)c12 [Example 51, 2-((4-Amino-3-(4-fluoro-3-hydroxyphenyl)-1H-pyrazolo [3,4-d]pyrimidin-1-yl)methyl)-3-(2-chlorobenzyl)-5-ethynylquinazolin-4(3H)-one] | < 50 | 50 to 1000 | 50 to 1000 | − (− <30%) | − (− <30%) | < 10
7 | Nc1ncnc2c1c(-c1ccc(O)cc1)nn2Cc1nc2cccc(C#CCOc3ccccc3)c2c(=O)n1Cc1ccccc1Cl [Example 52, 2-((4-Amino-3-(4-hydroxyphenyl)-1H-pyrazolo[3,4-d]pyrimidin-1-yl)methyl)-3-(2-chlorobenzyl)-5-(3-phenoxyprop-1-ynyl)quinazolin-4(3H)-one] | < 50 | 50 to 1000 | < 50 | − (− <30%) | − (− <30%) | < 10
